Like-named read-outs stand apart in the source and are kept apart here.

Series [1] concerns sucrose loaded normoglycaemic rats. Put plainly: Antihyperglycaemic activity on sucrose loaded normoglycaemic rats (SLM). To be noted: sucrose loaded normoglycaemic rats, compounds 100 mg/kg, Januvia 50 mg/kg; for Blood Glucose Profile 0 min: 0 min (fasting baseline); for Blood Glucose Profile 120 min: 120 min post sucrose. In kind it is in vivo, rat. How it is done:
(§1) The test compounds and standard antidiabetic drug Januvia were prepared in 1.0% freshly prepared Gum acacia.
Assessment of Test Compounds for Antihyperglycaemic Activity on Sucrose Loaded Normoglycaemic Rats—
In order to search towards the antidiabetic activity, synthetic compounds were preliminary evaluated for their effect on glucose tolerance in normal rats. It is an indirect effect of measuring antihyperglycaemic activity. Male albino rats of Wistar strain of body weight 160±20 g were selected for this study. The blood glucose of each animal was checked by glucometer using glucostrips (Accu-check) after 16 hours starvation. Animals showing blood glucose between 60 to 80 mg/dl (3.33 to 4.44 mM) were divided into groups of five to six animals in each. Rats of experimental group were administered suspension of the desired test compound orally (made in 1.0% gum acacia). The standard dose decided for Synthetic compounds is 100 mg/kg body weight. Animals of control group were given an equal amount of 1.0% gum acacia. A sucrose load (10.0 g/kg) was given to each animal orally exactly after 30 min post administration of the test sample/vehicle. Blood glucose profile of each rat was again determined at 30, 60, 90 and 120 min post administration of sucrose by glucometer. Food but not water was withheld from the cages during the course of experimentation. Quantitative glucose tolerance of each animal was calculated by area under curve (AUC) method using Prism Software. Comparing the AUC of experimental and control groups determined the percentage antihyperglycaemic activity. Statistical comparison was made by Dunnett's test.
(§2) Quantitative glucose tolerance of each animal was calculated by the area under the curve (AUC) method using Prism Software. The area under the curve of the control group and the experimental group was compared to determine the percent antihyperglycaemic activity. Statistical comparisons were performed by one-way analysis of variance (ANOVA), followed by Dunnett's multiple range test (DMRT). The results were considered statistically significant if the ‘p’ values were 0.05 or less. Results were expressed as mean±SEM.

Series [2] has as its system low dosed STZ induced diabetic rats. The series is described as follows: Antihyperglycaemic activity in low dosed streptozotocin induced diabetic rats (STZ). It is filed as in vivo, rat. The note with it: low dosed STZ diabetic rats, compounds 100 mg/kg, Januvia 50 mg/kg. How it is done: as §1
Assessment of Test Compounds for Antihyperglycaemic Activity in Low Dosed Streptozotocin Induced Diabetic Rats—
Induction of Diabetes in Rats:
Overnight starved male albino rats of Sprague Dawley strain were used and Diabetes was induced in the animals by single intraperitoneal injection of Streptozotocin at 60 mg/kg body weight dose prepared in 0.1M citrate buffer (pH 4.5). Fasting blood glucose level was measured by using a Glucometer (ACCU-CHEK II; Roche Diagnostics, USA) after 48 hours and animals showing blood glucose level above 300 mg/di were considered as diabetic.
The diabetic animals were divided into four groups (Group 1 to 4) each consisting 6 rats. Group 1 received 0.4 ml vehicle (1% gum acacia). Group 2 received the test compound 5 at an oral dose of 100 mg/kg/body weight. Group 3 was given compound 6 at an oral dose of 100 mg/kg/body weight. The standard antidiabetic drug Januvia was given to the animals of Group 4 at an oral dose of 50 mg/kg body weight. […] Food but not water was withheld from the cages during the course of experimentation. Percent hyperglycemic activity was determined by comparing the AUC (area under curve) of experimental groups with that of the vehicle treated control group.
as §2

For series [3], the system named is sucrose challenged STZ induced diabetic rats. Put plainly: Antihyperglycaemic activity in sucrose challenged streptozotocin (STZ)-induced diabetic rats (STZ-S). It is filed as in vivo, rat. The note with it: compounds 100 mg/kg, Januvia 50 mg/kg. How it is done:
The test compounds and standard antidiabetic drug Januvia were prepared in 1.0% freshly prepared Gum acacia. Assessment of Test Compounds for Antihyperglycaemic Activity in Sucrose Challenged Streptozotocin STZ-Induced Diabetic Rats— Induction of Diabetes in Rats: Overnight starved male albino rats of Sprague Dawley strain were used and Diabetes was induced in the animals by single intraperitoneal injection of Streptozotocin at 60 mg/kg body weight dose prepared in 0.1M citrate buffer (pH 4.5). Fasting blood glucose level was measured by using a Glucometer (ACCU-CHEK II; […] Grouping and Treatment: […] All the diabetic animals were again divided into groups with five animals in each group. Animals of one group were regarded as the control group (orally administered 1% gum acacia) and the others were treated as the experimental groups. […] Animals of the control group were given an equal amount of 1.0% gum acacia. The standard antidiabetic drug Januvia was given to the animals at an oral dose of 50 mg/kg body weight. […] Food but not water was withheld from the cages during the course of experimentation. Percent hyperglycemic activity was determined by comparing the AUC (area under curve) of experimental groups with that of the vehicle treated control group. Quantitative glucose tolerance of each animal was calculated by the area under the curve (AUC) method using Prism Software. The area under the curve of the control group and the experimental group was compared to determine the percent antihyperglycaemic activity. Statistical comparisons were performed by one-way analysis of variance (ANOVA), followed by Dunnett's multiple range test (DMRT). […] Results were expressed as mean±SEM.

Series [4] concerns the target T1, human recombinant PTP1B enzyme (Homo sapiens, UniProt P18031).
T1 construct: purchased Enzo Life Sciences, USA BML-AK 822
T1 sequence (P18031 1-322 limits assumed): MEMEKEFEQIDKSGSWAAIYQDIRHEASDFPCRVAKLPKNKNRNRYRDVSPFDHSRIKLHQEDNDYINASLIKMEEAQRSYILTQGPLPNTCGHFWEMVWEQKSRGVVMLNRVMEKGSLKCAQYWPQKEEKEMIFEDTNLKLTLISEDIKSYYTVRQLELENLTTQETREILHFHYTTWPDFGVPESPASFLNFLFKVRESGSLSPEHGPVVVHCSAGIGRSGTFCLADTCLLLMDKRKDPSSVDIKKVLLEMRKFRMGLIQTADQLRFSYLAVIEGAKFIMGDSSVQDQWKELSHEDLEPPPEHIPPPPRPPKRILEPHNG
Put plainly: Protein tyrosine phosphatase-1B assay (colorimetric kit BML-AK 822). The note with it: read-out: % Inhibition (PTP-1B). It is filed as biochemical. How it is done:
Assay was done according to the Kit manufacturers protocol, in brief the reaction was carried out in 96 well flat bottomed microtiter plate by the addition of assay buffer, solution of test compounds and diluted PTP1B enzyme. Enzyme reaction was initiated by addition of 50 μl of warmed 2× substrate then incubated the plate at 30° C. for 30 min. After incubation for 30 min. Reaction was terminated by addition of 25 μl of biomol red reagent and mixed thoroughly by repeated pipetting. […] Volumes and dilution of other component were accordingly as instructed in the manual provided in the kit. PTP1B phosphatase acting on the phosphopeptide substrate and release phosphate. The detection of free phosphate released is based on classic Malachite green assay. After adding biomol red to reaction wells after 30 minutes of incubation as described earlier the plate was incubated for another 20 min to develop the colour. Absorbance was recorded at 620 nm. on a microplate reader.

The mark [5] stands for this setting: 0 min pre treatment (fasting baseline).
[6] abbreviates: Table 5, evaluated at 10 μM concentration.

As for `N[C@@H](CC(=O)N1CCn2c(nnc2C(F)(F)F)C1)Cc1cc(F)c(F)cc1F` [Januvia, reference compound], the “Blood Glucose Profile 0 min” value was 66.3 ± 3.12 mg/dL in series [1] (mean ± S.E.) and 66.2 ± 0.73 mg/dL in series [1] (mean ± S.E., listed as januvia). Moreover, the “Blood Glucose Profile 30 min” value in series [1] (30 min post sucrose, mean ± S.E.) came to 114.0 ± 8.21 mg/dL. In addition, the “Blood Glucose Profile 60 min” value in series [1] (60 min post sucrose, mean ± S.E.) was 104.8 ± 5.70 mg/dL. Besides, the “Blood Glucose Profile 90 min” value in series [1] (90 min post sucrose, mean ± S.E.) was determined as 112.0 ± 7.30 mg/dL. Also, the “Blood Glucose Profile 120 min” value in series [1] (mean ± S.E.) was 115.0 ± 7.67 mg/dL; in series [1] (mean ± S.E., listed as januvia), 115.0 ± 7.67 mg/dL. For the same molecule, the “% Antihyperglycaemic activity SLM” value in series [1] (AUC vs control, oral) came to 35.0%. Moreover, the “Blood Glucose Profile 0 min (Pre treatment)” value was determined as 341.4 ± 3.53 mg/dL in series [2] (setting [5]) and 222.3 ± 16.2 mg/dL in series [3] (setting [5]). Moreover, the “Blood Glucose Profile 30 min (Post treatment)” value in series [2] (30 min) was 445.8 ± 13.0 mg/dL; in series [3] (30 min), 455.0 ± 14.2 mg/dL. For the same molecule, the “Blood Glucose Profile 60 min (Post treatment)” value was 497.4 ± 11.2 mg/dL in series [2] (60 min) and 519.8 ± 16.0 mg/dL in series [3] (60 min). In addition, the “Blood Glucose Profile 90 min (Post treatment)” value in series [2] (90 min) came out at 473.4 ± 11.2 mg/dL; in series [3] (90 min) it was 469.3 ± 9.40 mg/dL. Besides, the “Blood Glucose Profile 120 min (Post treatment)” value in series [2] (120 min) was determined as 392.0 ± 11.8 mg/dL; in series [3] (120 min), 439.3 ± 14.2 mg/dL. Besides, the “Blood Glucose Profile 180 min (Post treatment)” value is 348.2 ± 16.7 mg/dL in series [2] (180 min) and 377.6 ± 10.1 mg/dL in series [3] (180 min). For the same molecule, the “Blood Glucose Profile 240 min (Post treatment)” value in series [2] (240 min) stood at 300.4 ± 14.7 mg/dL; in series [3] (240 min), 359.5 ± 10.1 mg/dL. Further, the “Blood Glucose Profile 300 min (Post treatment)” value is 255.0 ± 16.9 mg/dL in series [2] (300 min) and 337.6 ± 8.18 mg/dL in series [3] (300 min). Further, the results for the “Blood Glucose Profile 1440 min (Post treatment)” value in series [2] (1440 min) and in series [3] (1440 min) were 484.4 ± 10.7 mg/dL and 394.6 ± 8.34 mg/dL, respectively. Further, the “% Antihyperglycaemic activity STZ 0-5 h AUC” value in series [2] (0-5 h AUC, oral) was found to be 28.2%. Also, the “% Antihyperglycaemic activity STZ 0-24 h AUC” value in series [2] (0-24 h AUC, oral) is recorded as 27.4%. Moreover, the “% Antihyperglycaemic activity STZ-S 0-5 h AUC” value in series [3] (0-5 h AUC, oral) is listed as 21.8%. Also, in series [3] (0-24 h AUC, oral), the “% Antihyperglycaemic activity STZ-S 0-24 h AUC” value came to 23.8%.

For `Cc1ccc(C(=O)Nc2ccc(S(=O)(=O)O)c3cc(S(=O)(=O)O)cc(S(=O)(=O)O)c23)cc1NC(=O)c1cccc(NC(=O)Nc2cccc(C(=O)Nc3cc(C(=O)Nc4ccc(S(=O)(=O)O)c5cc(S(=O)(=O)O)cc(S(=O)(=O)O)c45)ccc3C)c2)c1` [Standard Suramin, suramin, reference compound], in series [4] (setting [6]), the inhibition at 10 µM turned out to be 60.2%.

`COC(=O)c1c(SC)cc(-c2ccc(Br)cc2)c2c1-c1cn(-c3ccccc3)nc1CC2` [compound 1, methyl 6-(4-bromophenyl)-8-(methylthio)-2-phenyl-4,5-dihydro-2H-benzo[e]indazole-9-carboxylate]: the melting point fell in the range of 164 to 166 °C. The inhibition at 10 µM in series [4] came out at 9.2%.

`COC(=O)c1c(SC)cc(-c2ccc(Cl)cc2)c2c1-c1cn(-c3ccccc3)nc1CC2` [compound 2, methyl 6-(4-chlorophenyl)-8-(methylthio)-2-phenyl-4,5-dihydro-2H-benzo[e]indazole-9-carboxylate] yielded a melting point of 159 to 162 °C. Also, the inhibition at 10 µM in series [4] (setting [6]) is 8%.

Take `COC(=O)c1c(SC)cc(-c2ccc(OC)cc2)c2c1-c1cn(-c3ccccc3)nc1CC2` [compound 3, methyl 6-(4-methoxyphenyl)-8-(methylthio)-2-phenyl-4,5-dihydro-2H-benzo[e]indazole-9-carboxylate]: the melting point lay in the range of 172 to 174 °C. Besides, the inhibition at 10 µM in series [4] (setting [6]) turned out to be 8.43%.

On to `COC(=O)c1c(SC)cc(-c2ccc3ccccc3c2)c2c1-c1cn(-c3ccccc3)nc1C2` [compound 13, Methyl 5-(methylthio)-7-(naphthalen-2-yl)-2-phenyl-2,8-dihydroindeno[2,1-c]pyrazole-4-carboxylate], for which the melting point lay in the range of 235 to 237 °C.

Values taken from US9096539B2, “Substituted 4,5-dihydro-2H-benzo[e]indazole-9-carboxylates for the treatment of diabetes and related disorders” (Council of Scientific & Industrial Research, priority 2012, dated 2015).
